Experimental data from article PMC10464297, “Reevaluation of bromodomain ligands targeting BAZ2A” (Protein Science : A Publication of the Protein Society, 2023).
Entries after “also recorded” stand apart in the source; their conditions may differ.

Experiments:
[1] = tested on: 22Rv1 (AR‐positive) PCa cells; assay: 2D proliferation assay (resazurin), 22Rv1; type: cell-based
Procedure: (§1) Cell cultures, proliferation assay and spheroid gro wth
PC3 and 22Rv1 cells were cultured in RPMI 1640 medium containing 10% FBS, 1% penicillin-streptomycin and 2 m M L-glutamine. All cells were regularly tested for mycoplasma contamination.
For the proliferation assay, cells were counted with a hemocytometer and seeded in triplicates in 96-well plates (4 .5x10^3 cells/well for 22Rv1 and 2.0x103 for PC3) and let adhere overnight at 37°C, 5% CO2. The following day, the medium was replaced with RPMI 1640 containing either the carrier […]
(§2) transfected with siRNA for BAZ2A , RLUC or KIF11, as detailed below. The cells were incubated for 1, 3, 6 (PC3) and 9 days (22Rv1) and the medium containing either the carrier or the inhibitors was replaced every 3 day s. Cell proliferation and viability were determined at day 1, 3, 6 and 9 by adding 10% resazurin sodium salt solution (0. 03 mg/ml powder from Sigma -Aldrich) directly into each well and incubating them for 4h at 37°C, 5% CO 2. The absorbance at 570/600 nm was measured using a Varioskan plate reader. The reduction of the resazur in sodium salt was calculated using the formula: (Abs x – Abs 0. 1%DMSO day1)/(Abs 0. 1%DMSO day9 - Abs 0. 1%DMSO day1). The growth rate was analysed using the linear regression algorithm of GraphPad Prism. […]

[2] = tested on: PC3 spheroids; assay: Spheroid growth (3D), PC3; type: cell-based
Procedure: (§3) Cell cultures, proliferation assay and spheroid gro wth […]
streptomycin and 2 m M L-glutamine. All cells were regularly tested for mycoplasma contamination. […]
Spheroids were obtained by plating PC3 and 22Rv1 cells in low -adhesion round bottom 96 -well […]
(§4) After seeding, the cells were centrifuged for 10 min at 1200 x g at 4°C. Spheroids were given 48 hours to form after seeding before adding the treatment or the carrier (0.1% DMSO). Medium supplemented with treatment/carrier was changed every 48 hours, for a total of 32 days for 22Rv1 and 16 days for PC3. Each spheroid was imaged in brightfield every day or every other day (after day 20), using a Leica DM IL microscope […]
(§5) equipped with a Leica DFC450C digital camera. The area of each spheroid was measured using ImageJ and the average area for each condition was calculated. The growth rate was analysed using the segmental linear regression algorithm of GraphPad Prism. The appropriateness of the model was evaluated by considering the R square values and the Replicates test (Suppl. Table 6). […]

[3] = tested on: PC3 (AR‐negative) PCa cells; assay: 2D proliferation assay (resazurin), PC3; type: cell-based
Procedure: as §3
streptomycin and 2 m M L-glutamine. All cells were regularly tested for mycoplasma contamination.
For the proliferation assay, cells were counted with a hemocytometer and seeded in triplicates in 96-well plates (4 .5x10^3 cells/well for 22Rv1 and 2.0x103 for PC3) and let adhere overnight at 37°C, […]
as §2

[4] = tested on: 22Rv1 spheroids; assay: Spheroid growth (3D), 22Rv1; type: cell-based
Procedure: as §1
PC3 and 22Rv1 cells were cultured in RPMI 1640 medium containing 10% FBS, 1% penicillin-streptomycin and 2 m M L-glutamine. All cells were regularly tested for mycoplasma contamination. […]
as §4, with “Spheroids were obtained by plating PC3 and 22Rv1 cells in low -adhesion round bottom 96 -well plates. For 22Rv1, 2500 cells/well were seeded in 200 µl RPMI 1640; for PC3, 250 cells/well were seeded in 200 µl RPMI 1640 supplemented with 1.5% Matrigel. After” for “After”
as §5

[5] = target: T1, BAZ2A bromodomain (Homo sapiens, UniProt Q9UIF9); assay: AlphaScreen binding competition, BAZ2A bromodomain; settings: for % residual binding BAZ2A (100 μM): compound at 100 μM
T1 construct: BAZ2A and BAZ2B bromodomains were produced; made in house
T1 sequence (Q9UIF9 1793-1897 limits assumed): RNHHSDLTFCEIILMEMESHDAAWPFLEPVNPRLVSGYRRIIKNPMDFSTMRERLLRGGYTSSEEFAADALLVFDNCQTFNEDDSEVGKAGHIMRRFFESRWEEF
Text: (§6) BAZ2A and BAZ2B bromodomains were produced and their activity evaluated by AlphaScreen as previously reported (Dalle Vedove et al., [2018]; Spiliotopoulos et al., [2017]). BAZ2A bromodomain was crystallized as detailed in an earlier work (Spiliotopoulos et al., [2017]). Diffraction data were collected at the Elettra Synchrotron Light Source (Trieste, Italy), XRD1 and XRD2 beamlines, and the European Synchrotron Radiation Facility (ESRF, Grenoble, France), ID30A‐1/MASSIF‐1 beamline. Data were processed and structures were solved as described elsewhere (Dalle Vedove et al., [2018]). Chemical synthesis of compounds UP39 and UZH23 has already been reported (Unzue et al., [2016]; Zhu et al., [2018]). A detailed description of cell culture methods and ITC protocol is provided in the Supporting Information.
(§7) Figure S3. AlphaScreen competition binding assay for compounds UP39 and UZH23. The specific binding to the acetylated peptide relative to the control DMSO (y-axis) is plotted against the corresponding compound concentration in µM in log10 scale (x-axis).
(§8) (1 picture or pasted object on this page, not shown here)

[6] = target: T2, BAZ2B bromodomain (Homo sapiens, UniProt Q9UIF8); assay: AlphaScreen binding competition, BAZ2B bromodomain; settings: for % residual binding BAZ2B (100 μM): compound at 100 μM
T2 construct: BAZ2A and BAZ2B bromodomains were produced; made in house
T2 sequence (Q9UIF8 2060-2164 limits assumed): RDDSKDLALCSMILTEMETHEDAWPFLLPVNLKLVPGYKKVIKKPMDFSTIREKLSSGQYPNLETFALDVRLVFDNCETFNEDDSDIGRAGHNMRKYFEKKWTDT
Text: as §6, §7, §8

[7] = target: T1, BAZ2A bromodomain; assay: Isothermal titration calorimetry (ITC) on BAZ2A; type: binding
Text: It is worth noticing however that these values may be slightly overestimated. The presence of 0.25% DMSO in the ITC experiments leads to less favorable K D values as DMSO competes for binding to the conserved Asn (Lolli & Battistutta, [2013]; Navratilova et al., [2016]). […] Indeed, the change in sign of the entropic term observed for TP‐238 binding to BAZ2A (compared to BPTF and CECR2) closely resembles the effect reported for crotonyllysine binding to the TAF1 bromodomain (compared to Kac), also displacing an additional water molecule from the binding pocket (Flynn et al., [2015]). […]
Isothermal Titration Calorimetry
ITC experiments were performed using an MicroCal PEAQ-IT C microcalorimeter (Malvern Panalytical, UK) at 25°C with a stirring speed of 750 rpm in 20mM Tris pH 7. 8, 0. 2 M NaCl, 0. 2 mM TCEP and 0. 25% DMSO. For each experiment, one 0. 4 µl injection followed by eighteen 2 µl injections have been performed, with 150 seconds separating each injectio n. The inhibitors were tested at 70 µM in the cell with His -Baz2A in the syringe at 1 mM. A blank run with only the buffer was carried out (Suppl. Fig. S6). Data analysis was done with PE A Q-ITC Analysis software , fitting the curve with the ‘one site’ model.

[8] = target: CECR2 bromodomain; settings: ref Ycas et al., [2020]; read-out: K D CECR2; cited from earlier work
[9] = target: BPTF; settings: ref Ycas et al., [2020]; read-out: K D BPTF; cited from earlier work
[10] = target: T1, BAZ2A bromodomain; assay: Screening by co‐crystallization with BAZ2A bromodomain; type: binding
Text: as §6

[11] = target: BRD9; settings: ref Ycas et al., [2020]; read-out: K D BRD9; cited from earlier work
[12] = tested on: first bromodomain of BRD4; design: method as in Hay et al., [2014]; Picaud et al., [2015]; settings: ref Hay et al., [2014]; Picaud et al., [2015]; cited from earlier work
[13] = 3D setting, GSK2801 25 μM, BAZ2‐ICR 25 μM, BI9564 20 μM

For `COc1cc(-c2cn(C)c(=O)c3cnccc23)c(OC)cc1CN(C)C` [BI9564], the “effect on 2D growth of 22Rv1 cells” value ([1]; 2D‐cell culture, 22Rv1) was “only moderately affected 22Rv1 cell growth; also recorded: limited activity only on 22Rv1 cells”, the “Slope (best-fit, linear regression of growth curve)” value ([1]; 22Rv1, 0.1 µM) was 0,1043 and the “Slope (best-fit, linear regression of growth curve)” value ([1]; 22Rv1, 0.25 µM) was 0,1062. For the same compound, the “Slope (best-fit, linear regression of growth curve)” value ([1]; 22Rv1, 0.5 µM) was 0,1057, the “Slope (best-fit, linear regression of growth curve)” value ([1]; 22Rv1, 1 µM) was 0,1046 and the “Slope (best-fit, linear regression of growth curve)” value ([1]; 22Rv1, 2.5 µM) was 0,09943. The “Slope (best-fit, linear regression of growth curve)” value ([1]; 22Rv1, 5 µM) was 0,09452, the “Slope (best-fit, linear regression of growth curve)” value ([1]; 22Rv1, 10 µM) was 0,08987 and the “Slope (best-fit, linear regression of growth curve)” value ([1]; 22Rv1, 20 µM) was 0,08043. For the same compound, the “effect on growth of PC3 spheroids” value [2, 13] was “less effective on PC3”, the “slope2 (segmental linear regression of spheroid growth)” value ([2]; PC3 spheroids, 20 µM, after X0 = day 6) was 69835 and the “slope1 (segmental linear regression of spheroid growth)” value ([2]; PC3 spheroids, 20 µM, before X0 = day 6) was 28821. For the same compound, the “effect on 2D growth of PC3 cells” value ([3]; 2D‐cell culture, PC3) was “completely inactive on PC3 cells”, the “Slope (best-fit, linear regression of growth curve)” value ([3]; PC3, 0.1 µM) was 0,1514 and the “Slope (best-fit, linear regression of growth curve)” value ([3]; PC3, 0.25 µM) was 0,1530. The “Slope (best-fit, linear regression of growth curve)” value ([3]; PC3, 0.5 µM) was 0,1594, the “Slope (best-fit, linear regression of growth curve)” value ([3]; PC3, 1 µM) was 0,1557 and the “Slope (best-fit, linear regression of growth curve)” value ([3]; PC3, 2.5 µM) was 0,1485. The “Slope (best-fit, linear regression of growth curve)” value ([3]; PC3, 5 µM) was 0,1453, the “Slope (best-fit, linear regression of growth curve)” value ([3]; PC3, 10 µM) was 0,1454 and the “Slope (best-fit, linear regression of growth curve)” value ([3]; PC3, 20 µM) was 0,1470. For the same compound, the “effect on growth of 22Rv1 spheroids” value [4, 13] was “reduced the growth of 22Rv1 spheroids”, the “slope2 (segmental linear regression of spheroid growth)” value ([4]; 22Rv1 spheroids, 20 µM, after X0 = day 9) was 6998 and the “slope1 (segmental linear regression of spheroid growth)” value ([4]; 22Rv1 spheroids, 20 µM, before X0 = day 9) was 12255.

In the case of `CC(=O)n1cc(-c2c(C)nn3c2OCC3)c2ccccc21` [UZH23], the IC50 ([5]; AlphaScreen) is reported as 86000 ± 9000 nM, the “% residual binding BAZ2A (100 μM)” value [5] is reported as 52 ± 9% and the IC50 ([6]; AlphaScreen) is reported as greater than 100000 nM. The “% residual binding BAZ2B (100 μM)” value [6] was 62 ± 7%.

For `CN(C)CCCOc1ccc(-c2cc(NCCCn3cccn3)nc(S(C)(=O)=O)n2)cc1` [TP‐238], the “% residual binding BAZ2A (100 μM)” value [5] was 81 ± 3%, the Kd ([7]; 25°C, 0.25% DMSO, read-out: K D BAZ2A) was 108000 ± 6000 nM and the TΔS ([7]; BAZ2A) was 2.68 kcal/mol. For the same compound, the ΔG ([7]; BAZ2A) was -5.41 kcal/mol, the ΔH ([7]; BAZ2A) was -2.73 ± 0.07 kcal/mol and the “N (sites)” value ([7]; BAZ2A, one site model) was 1 sites. For the same compound, the Kd [8] was 10 nM, the Kd [9] was 120 nM and the “% residual binding BAZ2B (100 μM)” value [6] was 77 ± 2%. The “located in BAZ2A Kac pocket by co‐crystallization” value (shortened to “located in BAZ2A Kac pocket”) [10] was “located in the BAZ2A Kac pocket” and the Kd [11] was 1100 nM.

In the case of `CCC(=O)N1CCOc2c(cc(-c3ccc(OC)c(OC)c3)cc2OC[C@H]2CCCN(C)C2)C1` [I‐CBP112], the “off‐target activity on the first bromodomain of BRD4” value [12] is given as “weak off‐target activity”, the “% residual binding BAZ2A (100 μM)” value [5] is given as 98 ± 2% and the “% residual binding BAZ2B (100 μM)” value [6] is given as 96 ± 1%. For the same compound, the “located in BAZ2A Kac pocket” value [10] was “inability to act as BAZ2A inhibitors”.

In the case of `COc1ccc(CCc2nc3cc(-c4c(C)noc4C)ccc3n2C[C@H](C)N2CCOCC2)cc1Cl` [SGC‐CBP30], the “off‐target activity on the first bromodomain of BRD4” value [12] is given as “weak off‐target activity”, the “% residual binding BAZ2A (100 μM)” value [5] is given as 95 ± 4% and the “% residual binding BAZ2B (100 μM)” value [6] is given as 92 ± 6%. The “located in BAZ2A Kac pocket” value [10] was “inability to act as BAZ2A inhibitors”.
